Laboratory results taken from PubChem BioAssay AID330 (DTP/NCI, 2004).
“And” between values parts separate entries of the source, which are not always exact repeats. Identical values can stand only once. Inconclusive results and toxic doses are left out. Rule for the calls: active = survival T/C of 150% or more; inactive = T/C below 125% in these data.

Test system: P388 leukemia ip, CD2F1 mice, survival T/C
Test: NCI In Vivo Anticancer Drug Screen. Data for tumor model P388 Leukemia (intraperitoneal) in CD2F1 (CDF1) mice
Conditions: endpoint: median survival time, higher = longer survival
In short: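 Mice carrying the transplanted tumor received test compound or vehicle. Survival was recorded in each group, and the value is the treated-group measurement divided by that of the vehicle-treated control group.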

[1] = dose: 25.0 mg/kg/injection, schedule: Q01DX009 (ip), vehicle: saline with Tween-80
[2] = dose: 50.0 mg/kg/injection, schedule: Q01DX009 (ip), vehicle: saline with Tween-80
[3] = dose: 50.0 mg/kg/injection, schedule: Q04DX003 (ip), vehicle: saline with Tween-80
[4] = dose: 100.0 mg/kg/injection, schedule: Q04DX003 (ip), vehicle: saline with Tween-80
[5] = dose: 100.0 mg/kg/injection, schedule: Q04DX003 (ip), vehicle: saline
[6] = dose: 200.0 mg/kg/injection, schedule: Q04DX003 (ip), vehicle: saline with Tween-80
[7] = dose: 50.0 mg/kg/injection, schedule: Q01DX009 (ip), vehicle: Klucel (hydroxypropylcellulose) (HPC)
[8] = dose: 100.0 mg/kg/injection, schedule: Q01DX009 (ip), vehicle: Klucel (hydroxypropylcellulose) (HPC)
[9] = dose: 200.0 mg/kg/injection, schedule: Q01DX009 (ip), vehicle: Klucel (hydroxypropylcellulose) (HPC)
[10] = dose: 60.0 mg/kg/injection, schedule: Q01DX005 (ip), vehicle: saline with Tween-80
[11] = dose: 120.0 mg/kg/injection, schedule: Q01DX005 (ip), vehicle: saline with Tween-80
[12] = dose: 7.5 mg/kg/injection, schedule: Q01DX005 (ip), vehicle: saline with Tween-80
[13] = dose: 15.0 mg/kg/injection, schedule: Q01DX005 (ip), vehicle: saline with Tween-80
[14] = dose: 30.0 mg/kg/injection, schedule: Q01DX005 (ip), vehicle: saline with Tween-80
[15] = dose: 240.0 mg/kg/injection, schedule: Q01DX005 (ip), vehicle: saline with Tween-80
[16] = dose: 100.0 mg/kg/injection, schedule: Q01DX009 (ip), vehicle: saline with Tween-80
[17] = dose: 200.0 mg/kg/injection, schedule: Q01DX009 (ip), vehicle: saline with Tween-80
[18] = dose: 50.0 mg/kg/injection, schedule: Q01DX005 (ip), vehicle: saline with Tween-80
[19] = dose: 100.0 mg/kg/injection, schedule: Q01DX005 (ip), vehicle: saline with Tween-80
[20] = dose: 200.0 mg/kg/injection, schedule: Q01DX005 (ip), vehicle: saline with Tween-80
[21] = dose: 3.13 mg/kg/injection, schedule: Q01DX009 (ip), vehicle: water
[22] = dose: 6.25 mg/kg/injection, schedule: Q01DX009 (ip), vehicle: water
[23] = dose: 12.5 mg/kg/injection, schedule: Q01DX009 (ip), vehicle: water
[24] = dose: 25.0 mg/kg/injection, schedule: Q01DX009 (ip), vehicle: water
[25] = dose: 50.0 mg/kg/injection, schedule: Q01DX009 (ip), vehicle: saline
[26] = dose: 100.0 mg/kg/injection, schedule: Q01DX009 (ip), vehicle: saline

Measured: T/C

CCc1c(CC(=O)O)c2cc(C)ccc2n1Cc1ccc(Cl)cc1
inactive: dose: 12.5 mg/kg/injection, schedule: Q01DX009 (ip), vehicle: saline with Tween-80 95 % of control | [1] 104 % of control | dose: 25.0 mg/kg/injection, schedule: Q04DX003 (ip), vehicle: saline with Tween-80 104 % of control and 95 % of control and 91 % of control | [2] 109 % of control | [3] 108 % of control and 91 % of control | [4] 90 % of control and 108 % of control and 92 % of control | [5] 96 % of control | [6] 90 % of control

Cc1cc(C)c2c(c1)/C(=C/C(=O)c1ccccc1)C(=O)N2
inactive: [7] 100 % of control | [8] 95 % of control | [9] 100 % of control

O=S(=O)(c1ccc2ccccc2c1)N(CCCCCN(S(=O)(=O)c1ccc2ccccc2c1)S(=O)(=O)c1ccc2ccccc2c1)S(=O)(=O)c1ccc2ccccc2c1
inactive: [10] 104 % of control | [11] 94 % of control

N#Cc1c(N)nc2c(c(-c3ccc(Cl)cc3)nn2-c2ccccc2)c1C#N
inactive: [12] 97 % of control | [13] 86 % of control and 96 % of control | [14] 89 % of control and 90 % of control | [11] 86 % of control and 91 % of control | [15] 93 % of control

COC(=O)CCCC(NC(=O)c1ccc([N+](=O)[O-])cc1)C(=O)OC (configuration not stated)
inactive: [2] 98 % of control | [16] 96 % of control | [17] 96 % of control

CCCCCCCCCCCCCCCCCSCc1ccc(Nc2ccccc2)cc1
inactive: [1] 108 % of control | dose: 50.0 mg/kg/injection, schedule: Q01DX009 (ip), vehicle: other 116 % of control | [2] 103 % of control and 108 % of control | dose: 100.0 mg/kg/injection, schedule: Q01DX009 (ip), vehicle: other 116 % of control | [16] 103 % of control | dose: 200.0 mg/kg/injection, schedule: Q01DX009 (ip), vehicle: other 118 % of control | [17] 116 % of control and 93 % of control

NC(Cc1ccccc1Br)c1nn[nH]n1 (configuration not stated)
inactive: [1] 97 % of control | [2] 104 % of control | [16] 114 % of control

Nc1nc(S)cc(=O)[nH]1
inactive: [2] 91 % of control | [16] 108 % of control | [17] 94 % of control | dose: 400.0 mg/kg/injection, schedule: Q01DX009 (ip), vehicle: saline with Tween-80 99 % of control

CS(=O)(=O)/C=C/c1cc2ccccc2[nH]1
inactive: [7] 89 % of control | [8] 101 % of control | [9] 104 % of control

N#C/C(=C/N)C(N)=O
inactive: [2] 104 % of control | [16] 103 % of control | [17] 103 % of control

C=C(C)C(=O)OC1CCCC2C(=C)C(=O)OC12 (configuration not stated)
inactive: dose: 60.0 mg/kg/injection, schedule: Q01DX005 (ip), vehicle: Klucel (hydroxypropylcellulose) (HPC) 105 % of control | dose: 120.0 mg/kg/injection, schedule: Q01DX005 (ip), vehicle: Klucel (hydroxypropylcellulose) (HPC) 100 % of control | dose: 240.0 mg/kg/injection, schedule: Q01DX005 (ip), vehicle: Klucel (hydroxypropylcellulose) (HPC) 107 % of control

Cc1ccc(S(=O)(=O)N=Nc2c(O)[nH]c3c(Cl)cc(Cl)cc23)cc1
inactive: [18] 103 % of control | [19] 100 % of control | [20] 95 % of control

[CH3][Ge]([c]1ccccc1)[c]1cccc2ccccc12.[CH3][Sn]([CH3])[c]1ccccc1
inactive: [5] 100 % of control | dose: 200.0 mg/kg/injection, schedule: Q04DX003 (ip), vehicle: saline 100 % of control | dose: 400.0 mg/kg/injection, schedule: Q04DX003 (ip), vehicle: saline 101 % of control

Cc1ccc2c3nc4ccccc4c-3csc2c1
inactive: dose: 18.0 mg/kg/injection, schedule: Q01DX009 (ip), vehicle: saline 104 % of control | dose: 27.5 mg/kg/injection, schedule: Q01DX009 (ip), vehicle: saline 89 % of control

CC1(COc2ccccc2OCC2(C)CO2)CO1 (configuration not stated)
inactive: dose: 1.88 mg/kg/injection, schedule: Q01DX005 (ip), vehicle: saline with Tween-80 102 % of control | dose: 3.75 mg/kg/injection, schedule: Q01DX005 (ip), vehicle: saline with Tween-80 100 % of control | [12] 98 % of control | [13] 100 % of control | [14] 100 % of control | [10] 102 % of control | [11] 107 % of control

CN(C)c1ccc(/C=C/c2cc[n+](C)c(/C=C/c3ccc(N(C)C)cc3)c2)cc1
inactive: dose: 0.78 mg/kg/injection, schedule: Q01DX005 (ip), vehicle: saline 115 % of control | dose: 1.56 mg/kg/injection, schedule: Q01DX005 (ip), vehicle: saline 119 % of control

COC(=O)c1nc(N)nc(C(=O)OC)c1C(=O)/C=C/c1ccccc1
inactive: [10] 100 % of control | [11] 98 % of control

O/N=C/c1cccc[n+]1Cc1ccccc1
inactive: dose: 1.56 mg/kg/injection, schedule: Q01DX009 (ip), vehicle: water 102 % of control | [21] 101 % of control | [22] 102 % of control | [23] 102 % of control | [24] 107 % of control

CC1(C)O[Se](=O)OC1(C)C
inactive: dose: 1.56 mg/kg/injection, schedule: Q04DX003 (ip), vehicle: saline 103 % of control | dose: 3.12 mg/kg/injection, schedule: Q04DX003 (ip), vehicle: saline 98 % of control | dose: 6.25 mg/kg/injection, schedule: Q04DX003 (ip), vehicle: saline 90 % of control

COC(=O)C(N)CSCSCc1ccccc1 (configuration not stated)
inactive: [21] 90 % of control | [22] 90 % of control | [23] 93 % of control | dose: 25.0 mg/kg/injection, schedule: Q01DX009 (ip), vehicle: saline 100 % of control | [24] 90 % of control | [25] 98 % of control | dose: 50.0 mg/kg/injection, schedule: Q01DX009 (ip), vehicle: water 90 % of control | [26] 101 % of control

CCC1CN2CCc3cc(OC)c(OC)cc3C2CC1C#N (configuration not stated)
inactive: [2] 93 % of control

O=[N+]([O-])c1ccc(/C=C/c2cccs2)c([N+](=O)[O-])c1
inactive: [7] 105 % of control | [8] 94 % of control | [9] 88 % of control

O=C(O)C1C2OC3C(OC(=O)C31)C2Br (configuration not stated)
inactive: [18] 100 % of control | [19] 94 % of control | [20] 103 % of control

CCCCCCCCCCCCOC(=O)c1ccc(O)cc1
inactive: [7] 98 % of control | [8] 94 % of control

O=C(O)CC1(C(=O)O)CCC(OCc2ccccc2)CC1 (configuration not stated)
inactive: [25] 102 % of control | [26] 92 % of control

CCOC(=O)OCC(=O)[C@@]1(O)CC[C@H]2[C@@H]3CCC4=CC(=O)CC[C@]4(C)[C@H]3[C@@H](O)C[C@@]21C
inactive: [2] 104 % of control | [3] 100 % of control | [16] 100 % of control | [4] 100 % of control | [17] 90 % of control | [6] 100 % of control

CCOC(=O)c1c(C)c2c(n1C)CCc1sc(N)nc1-2
inactive: dose: 50.0 mg/kg/injection, schedule: Q04DX003 (ip), vehicle: Klucel (hydroxypropylcellulose) (HPC) 100 % of control | dose: 100.0 mg/kg/injection, schedule: Q04DX003 (ip), vehicle: Klucel (hydroxypropylcellulose) (HPC) 101 % of control | dose: 200.0 mg/kg/injection, schedule: Q04DX003 (ip), vehicle: Klucel (hydroxypropylcellulose) (HPC) 94 % of control

CCOC1(C(C)O)CC(c2ccccc2)=NO1 (configuration not stated)
inactive: [10] 108 % of control | [11] 101 % of control | [15] 100 % of control

COC(=O)C12C(=O)C(C(=O)OC)(C(c3ccccc3)=C1c1ccccc1)C1OC(=O)OC12 (configuration not stated)
inactive: [2] 91 % of control | [16] 86 % of control
